Read-outs that look alike come from different tables or passages of the source. Marks after values point to notes of the source that are not given here.
Experiments:
Uromyces appendiculatus = test: Example F: in vivo preventive test on Uromyces appendiculatus (bean rust); conditions: bean plants, preventive spray, evaluated 11 days after inoculation
Method: (§1) The young plants of bean are treated by spraying the active ingredient prepared as described above. Control plants are treated only with an aqueous solution of acetone/Dimethyl sulfoxide/Tween®. After 24 hours, the plants are contaminated by spraying the leaves with an aqueous suspension of Uromyces appendiculatus spores.

Sphaerotheca fuliginea = test: Example E: in vivo preventive test on Sphaerotheca fuliginea (powdery mildew on cucurbits); conditions: gherkin plants, preventive spray, evaluated 15 days after inoculation
Method: as §1, with “gherkin” for “bean”, “Sphaerotheca fuliginea” for “Uromyces appendiculatus”

Septoria tritici = test: Example D: in vivo preventive test on Septoria tritici (leaf spot on wheat); conditions: wheat plants, preventive spray, evaluated 24 days after inoculation
Method: as §1, with “wheat” for “bean”, “Septoria tritici” for “Uromyces appendiculatus”

Puccinia recondita = test: Example B: in vivo preventive test on Puccinia recondita (brown rust on wheat); conditions: wheat plants, preventive spray, evaluated 11 days after inoculation
Method: as §1, with “wheat” for “bean”, “Puccinia recondita” for “Uromyces appendiculatus”

Leptosphaeria nodorum = test: Example K: Leptosphaeria nodorum test (wheat)/preventive; format: in vivo; conditions: 500 ppm of active ingredient, preventive, evaluated 8 days after inoculation
Method: Solvent: 49 parts by weight of N,N-dimethylacetamide Emulsifier: 1 part by weight of alkylaryl polyglycol ether To produce a suitable preparation of active compound, 1 part by weight of active compound or active compound combination is mixed with the stated amounts of solvent and emulsifier, and the concentrate is diluted with water to the desired concentration. To test for preventive activity, young plants are sprayed with the preparation of active compound or active compound combination at the stated rate of application. After the spray coating has been dried, the plants are sprayed with a spore suspension of Leptosphaeria nodorum.

[1] = tested on: Blumeria graminis f. sp. hordei; test: Example G: Blumeria test (barley)/preventive; format: in vivo; conditions: 500 ppm of active ingredient, preventive, evaluated 7 days after inoculation
Method: Solvent: 49 parts by weight of N,N-dimethylacetamide Emulsifier: 1 part by weight of alkylaryl polyglycol ether To produce a suitable preparation of active compound, 1 part by weight of active compound or active compound combination is mixed with the stated amounts of solvent and emulsifier, and the concentrate is diluted with water to the desired concentration. To test for preventive activity, young plants are sprayed with the preparation of active compound or active compound combination at the stated rate of application. After the spray coating has been dried, the plants are dusted with spores of Blumeria graminis f. sp. hordei.

[2] = tested on: Fusarium nivale (var. majus); test: Example J: Fusarium nivale (var. majus)-test (wheat)/preventive; format: in vivo; conditions: 500 ppm of active ingredient, preventive, evaluated 5 days after inoculation
Method: (§2) Solvent: 49 parts by weight of N,N-dimethylacetamide
(§3) Emulsifier: 1 part by weight of alkylaryl polyglycol ether
(§4) To produce a suitable preparation of active compound, 1 part by weight of active compound or active compound combination is mixed with the stated amounts of solvent and emulsifier, and the concentrate is diluted with water to the desired concentration.
To test for preventive activity, young plants are sprayed with the preparation of active compound or active compound combination at the stated rate of application.
After the spray coating has been dried, the plants are slightly injured by using a sandblast and afterwards they are sprayed with a conidia suspension of Fusarium nivale (var. majus).
The plants are placed in the greenhouse under a translucent incubation cabinet at a temperature of approximately 10° C. and a relative atmospheric humidity of approximately 100%.
(§5) The test is evaluated 5 days after the inoculation. 0% means an efficacy which corresponds to that of the untreated control, while an efficacy of 100% means that no disease is observed.

Pyricularia oryzae = format: in vivo; conditions: 500 ppm of active ingredient; rice, preventive; evaluated 8 days after inoculation
Pyrenophora teres = test: Example C: in vivo preventive test on Pyrenophora teres (net blotch on barley); conditions: 500 ppm of active ingredient; barley plants, preventive spray; evaluated 14 days after inoculation
Method: as §1, with “barley” for “bean”, “Pyrenophora teres” for “Uromyces appendiculatus”

Fusarium graminearum = format: in vivo; conditions: 500 ppm of active ingredient; barley, preventive; evaluated 5 days after inoculation
Botrytis cinerea = test: Example A: in vivo preventive test on Botrytis cinerea (grey mould); conditions: gherkin plants, preventive spray, evaluated 4 to 5 days after inoculation
Method: as §1, with “gherkin” for “bean”, “Botrytis cinerea” for “Uromyces appendiculatus”

Phakopsora pachyrhizi = test: Example L: Phakopsora test (soybeans)/preventive; format: in vivo; conditions: preventive, evaluated 7 days after inoculation
Fusarium culmorum = test: Example H: Fusarium culmorum-test (wheat)/curative; format: in vivo; conditions: 500 ppm of active ingredient, curative, evaluated 5 days after inoculation
Method: as §2, §3, §4
To test for curative activity, young plants are slightly injured by using a sandblast and afterwards they are sprayed with a conidia suspension of Fusarium culmorum and placed for 24 hours in a greenhouse under a translucent incubation cabinet at a temperature of approximately 22° C. and a relative atmospheric humidity of approximately 100% and are subsequently sprayed with the preparation of active compound at the stated rate of application.
After the spray coating has been dried, the plants remain in the greenhouse under translucent incubation cloches at a temperature of approximately 22° C. and a relative atmospheric humidity of approximately 100%.
as §5

Compound	Eff. % (Uromyces appendiculatus; 500 ppm of active ingredient) [%]	Eff. % (Sphaerotheca fuliginea; 500 ppm of active ingredient) [%]	Eff. % (Septoria tritici; 500 ppm of active ingredient) [%]	LogP (pH 2.7)	Eff. % (Puccinia recondita; 500 ppm of active ingredient) [%]	Eff. % (Leptosphaeria nodorum) [%]	Eff. % [1] [%]	Eff. % [2] [%]	Eff. % (Pyricularia oryzae) [%]	Eff. % (Pyrenophora teres) [%]	Eff. % (Fusarium graminearum) [%]	Eff. % (Botrytis cinerea; 500 ppm of active ingredient) [%]	Eff. % (Phakopsora pachyrhizi; 10 ppm of active ingredient) [%]	Eff. % (Sphaerotheca fuliginea; 100 ppm of active ingredient) [%]	further results
CC(C)(Oc1ccc(Cl)cc1)C(O)(Cc1ccncc1Cl)Cn1cncn1 (racemic) [Example I-70]	99	100	100	2.84^[a]	94	89	100	88							
OC(Cc1nccnc1Br)(Cn1cncn1)C1(Cl)CC1 (racemic) [Example I-71]	99	100	100	1.96^[a]	94		100	94	80	79	100	100			
OC(Cc1ccncc1Cl)(Cn1cncn1)C1CCC1 (racemic) [Example I-77]	100	100	100	1.46^[a]	98		100	83	86	86	86	100			Eff. % (Phakopsora pachyrhizi; 100 ppm of active ingredient): 100%
OC(Cc1ccncc1C(F)(F)F)(Cn1cncn1)C1(Cl)CC1 (racemic) [Example I-81]	100	100	100	2.08^[a]	100	100	100	100	100	97	100	99	85		
OC(Cc1cccnc1Cl)(Cn1cncn1)C1(Cl)CC1 (single isomer, unassigned) [Example I-94]				1.81^[a]		71	100	100	70						LogP (pH 7.8): 1.79^[b];
OC(Cc1cccnc1Cl)(Cn1cncn1)C1(Cl)CC1 (single isomer, unassigned) [Example I-95]				1.81^[a]		100	100	100	100		100				LogP (pH 7.8): 1.79^[b];
OC(Cc1ccc(Cl)nc1)(Cn1cncn1)C1(Cl)CC1 (stereo not shown) [Example I-4]	97	100	96	1.84^[a]	100	80	100	71				100			Eff. % (Phakopsora pachyrhizi; 100 ppm of active ingredient): 95%; Eff. % (Fusarium culmorum): 92%
CC(CF)(CF)C(O)(Cc1ccncc1F)Cn1cncn1 (stereo not shown) [Example I-21]				1.27^[a]		94	100	100			100		93	100	Eff. % (Uromyces appendiculatus; 100 ppm of active ingredient): 100%; Eff. % (Septoria tritici; 100 ppm of active ingredient): 100%; Eff. % (Puccinia recondita; 100 ppm of active ingredient): 98%; Eff. % (Fusarium culmorum): 100%
OC(Cc1ccnc2ccccc12)(Cn1cncn1)C1(Cl)CC1 (stereo not shown) [Example I-27]				1.00^[a]			100	93	89		100			100	Eff. % (Uromyces appendiculatus; 100 ppm of active ingredient): 98%; Eff. % (Botrytis cinerea; 100 ppm of active ingredient): 98%
OC(Cc1nccnc1Cl)(Cn1cncn1)C1(Cl)CC1 (stereo not shown) [Example I-30]				1.86^[a]									75	94	Eff. % (Uromyces appendiculatus; 100 ppm of active ingredient): 100%
OC(Cc1ccc(Cl)c(Cl)n1)(Cn1cncn1)C1(Cl)CC1 (stereo not shown) [Example I-31]				2.66^[a]		88	100	75						90	Eff. % (Uromyces appendiculatus; 100 ppm of active ingredient): 94%; Eff. % (Septoria tritici; 100 ppm of active ingredient): 100%; Eff. % (Puccinia recondita; 100 ppm of active ingredient): 83%
OC(Cc1ccnc(Cl)c1)(Cn1cncn1)C1(F)CC1 (stereo not shown) [Example I-33]	100	100	100	1.44^[a]	93	86	100	93		75	100				Eff. % (Botrytis cinerea; 100 ppm of active ingredient): 94%
CC(CF)(CF)C(O)(Cc1ccnc(Cl)c1)Cn1cncn1 (stereo not shown) [Example I-36]	100	100	100	1.66^[a]	97		100			88	94				
OC(Cc1cc(Cl)ncc1F)(Cn1cncn1)C1(Cl)CC1 (stereo not shown) [Example I-40]	100	100	100	2.06^[a]	97	100	100	86		100	100	97	73		
OC(Cc1cc(Cl)nnc1Cl)(Cn1cncn1)C1(Cl)CC1 (stereo not shown) [Example I-46]				1.92^[a]		83		100	78		92			100	Eff. % (Septoria tritici; 100 ppm of active ingredient): 100%; Eff. % (Puccinia recondita; 100 ppm of active ingredient): 88%
OC(Cc1cc(Cl)ncc1Cl)(Cn1cncn1)C1(Cl)CC1 (stereo not shown) [Example I-58]	100	100	100	2.53^[a]	97	93	100	100	100	95	100	98	89		

From US9822099B2, “Triazole derivatives” (priority 2013, dated 2017)
